Experimental data published in patent US20070043035A1, “Novel compounds and their use in medicine: process for their preparation and pharmaceutical compositions containing them” (priority 2003, published 2007).

Assays:
[1] = test system: cholesterol fed Syrian Hamsters; assay: Body weight reducing effect in cholesterol fed hamsters; type: in vivo, hamster; conditions: dose 3 mg/kg, oral, 15 days
Experimental: Male Syrian Hamsters are procured from NIN, Hyderabad, India. Animals are housed at DRF animal house under 12 hour light and dark cycle at 25±1° C. with free access to food and water. Animals are maintained with 1% cholesterol containing standard laboratory chow (NIN) from the day of treatment.
The test compounds can be administered orally at 1 to 30 mg/kg/day dose for 15 days. Control group animals are treated with vehicle (Mill Q water, dose 10 ml/kg/day). Body weights are measured on every 3rd day.
(§1) Formulae for Calculation: 1. Percent reduction in Blood sugar triglycerides/total cholesterol will be calculated according to the formula: [formula] OC=Zero day control group value OT=Zero day treated group value TC=Test day control group value TT=Test day treated group value 2. LDL and VLDL cholesterol levels will be calculated according to the formula: [formula] [formula]

hPPARγ1 = target: T1, hPPARγ1 (Homo sapiens, UniProt P37231); assay: Determination of hPPARγ activity (GAL4-LBD luciferase reporter in HEK-293 cells); type: cell-based; conditions: compound concentration 1 μM
T1 construct: expressed in transfected cells; host or cells: HEK-293
T1 sequence (P37231 238-503 limits assumed): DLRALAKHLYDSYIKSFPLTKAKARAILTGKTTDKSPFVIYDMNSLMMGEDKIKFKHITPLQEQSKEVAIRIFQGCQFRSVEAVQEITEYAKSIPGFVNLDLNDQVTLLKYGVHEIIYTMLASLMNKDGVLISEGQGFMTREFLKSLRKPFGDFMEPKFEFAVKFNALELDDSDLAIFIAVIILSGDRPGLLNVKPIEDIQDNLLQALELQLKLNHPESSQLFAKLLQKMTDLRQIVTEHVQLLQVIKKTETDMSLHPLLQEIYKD
Experimental: Ligand binding domain of hPPARγ1 is fused to DNA binding domain of Yeast transcription factor GAL4 in eucaryotic expression vector. Using lipofectamine (Gibco BRL, USA) as transfecting reagent HEK-293 cells are transfected with this plasmid and a reporter plasmid harboring the luciferase gene driven by a GAL4 specific promoter. Compound can be added at 1 μM. concentration after 48 hrs of transfection and incubated overnight Luciferase activity as a function of drug binding/activation capacity of PPARγ1 will be measured using Packard Luclite kit (Packard, USA) in Packard Top Count (Ivan Sadowski, Brendan Bell, Peter Broag and Melvyn Hollis. Gene. 1992. 118:137-141; Guide to Eukaryotic Transfections with Cationic Lipid Reagents. Life Technologies, GIBCO BRL, USA).

hPPARα = target: T2, hPPARα (Homo sapiens, UniProt Q07869); assay: Determination of hPPARα activity (GAL4-LBD luciferase reporter in HEK-293 cells); type: cell-based; conditions: compound concentration 50 μM
T2 construct: expressed in transfected cells; host or cells: HEK-293
T2 sequence (Q07869 239-466 limits assumed): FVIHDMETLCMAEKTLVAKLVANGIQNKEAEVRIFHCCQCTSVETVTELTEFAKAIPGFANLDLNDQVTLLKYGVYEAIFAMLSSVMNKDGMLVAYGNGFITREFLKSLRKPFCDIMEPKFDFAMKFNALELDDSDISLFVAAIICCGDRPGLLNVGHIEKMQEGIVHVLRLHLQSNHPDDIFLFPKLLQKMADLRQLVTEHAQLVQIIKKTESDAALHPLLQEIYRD
Experimental: Ligand binding domain of hPPARα was fused to DNA binding domain of Yeast transcription factor Gal 4 in eucaryotic expression vector. Using superfect (Qiagen, Germany) as transfecting reagent HEK-293 cells are transfected with this plasmid and a reporter plasmid harboring the luciferase gene driven by a GAL4 specific promoter. Compound can be added at different concentrations after 42 hrs of transfection and incubated overnight. Luciferase activity as a function of compound binding/activation capacity of PPARα will be measured using Packard Luclite kit (Packard, USA) in Top Count (Ivan Sadowski, Brendan Bell, Peter Broag and Melvyn Hollis. Gene. 1992. 118: 137-141; Superfect Transfection Reagent Handbook. February 1997. Qiagen, Germany).

C57BL/Ks-db/db mice = assay: Efficacy in genetic models: triglyceride lowering in db/db mice; type: in vivo, mouse; conditions: dose 1 mg/kg, oral gavage daily for 6 days, plasma
From the text: Mutation in colonies of laboratory animals and different sensitivities to dietary regimens has made the development of animal models with non-insulin dependent diabetes and hyperlipidemia associated with obesity and insulin resistance possible. Genetic models such as db/db and ob/ob (Diabetes, (1982) 31(1): 1-6) mice and zucker fa/fa rats have been developed by the various laboratories for understanding the pathophysiology of disease and testing the efficacy of new antidiabetic compounds (Diabetes, (1983) 32: 830-838; Annu. Rep. Sankyo Res. Lab. (1994). 46: 1-57). […]
The random blood sugar and triglyceride levels can be measured by collecting blood (100 μl) through orbital sinus, using heparinised capillary in tubes containing EDTA which was centrifuged to obtain plasma. The plasma glucose and triglyceride levels can be measured spectrometrically, by glucose oxidase and glycerol-3-PO4 oxidase/peroxidase enzyme (Dr. Reddy's Lab. Diagnostic Division Kits, Hyderabad, India) methods respectively.
The blood sugar and triglycerides lowering activities of the test compound are calculated according to the formula.
(§2) Formulae for Calculation: 1. Percent reduction in Blood sugar triglycerides/total cholesterol will be calculated according to the formula: [formula] […] LDL and VLDL cholesterol levels will be calculated according to the formula: [formula] […]

Swiss albino mice = assay: Plasma triglyceride and total cholesterol lowering activity in Swiss albino mice; type: in vivo, mouse; conditions: dose 3 mg/kg, oral, 6 days
Experimental: Male Swiss albino mice (SAM) were obtained from NIN and housed in DRF animal house. All these animals are maintained under 12 hour light and dark cycle at 25±1° C. Animals are given standard laboratory chow (NIN, Hyderabad, India) and water, ad libitum. SAM of 20-25 g body weight range and Guinea pigs of 500-700 g body weight range are used (Oliver, P., Plancke, M. O., Marzin, D., Clavey, V., Sauzieres, J and Fruchart, J. C. Effects of fenofibrate, gemfibrozil and nicotinic acid on plasma lipoprotein levels in normal and hyperlipidemic mice. Atherosclerosis. 1988. 70: 107-114).
The test compounds can be administered orally to Swiss albino mice at 0.3 to 30 mg/kg/day dose for 6 days. Control mice are treated with vehicle (0.25% Carboxymethylcellulose; dose 10 ml/kg). The test compounds are administered orally to Guinea pigs at 0.3 to 30 mg/kg/day dose for 6 days. Control animals are treated with vehicle (0.25% Carboxymethylcellulose; dose 5 ml/kg).
The blood samples can be collected in fed state 1 hour after drug administration on 0 and 6 day of treatment. […]
as §2

[2] = test system: hypercholesterolemic Sprague Dawley rats; assay: Plasma triglyceride and cholesterol lowering activity in hypercholesterolemic rat models; type: in vivo; conditions: dose 1 mg/kg, oral, 3 days
Experimental: Male Sprague Dawley rats (NIN stock) were bred in DRF animal house. Animals were maintained under 12 hour light and dark cycle at 25±1° C. Rats of 180-200 gram body weight range were used for the experiment. Animals are made hypercholesterolemic by feeding 2% cholesterol and 1% sodium cholate mixed with standard laboratory chow [National Institute of Nutrition (NE), Hyderabad, India] for 6 days. Throughout the experimental period the animals were maintained on the same diet (Petit, D., Bonnefis, M. T., Rey, C and Infante, P Effects of ciprofibrate on liver lipids and lipoprotein synthesis in normo- and hyperlipidemic rats. Atherosclerosis. 1988. 74: 215-225).
The test compounds can be administered orally at a dose 0.1 to 30 mg/kg/day for 3 days. Control group was treated with vehicle alone (0.25% Carboxymethylcellulose; dose 10 ml/kg).
The blood samples can be collected in fed state 1 hour after drug administration on 0 and 3 day of compound treatment The blood can be collected from the retro-orbital sinus through heparinised capillary in EDTA containing tubes. After centrifugation, plasma sample will be separated for total cholesterol, HDL and triglyceride estimations. Measurement of plasma triglyceride, total cholesterol and HDL are were done using commercial kits (Dr. Reddy's Laboratory, Diagnostic Division, India). LDL and VLDL cholesterol can be calculated from the data obtained for total cholesterol, HDL and triglyceride. The reduction of various parameters examined are calculated according to the formula.
as §1

Row | Compound | melting point [°C] | further results
1 | C/C(=C\COc1ccc(OC(C)(C)C(=O)O)cc1)c1ccc(-c2ccccc2)cc1 [Example 25, 2-[4-(3-Biphenyl-4-yl-but-2-enyloxy)phenoxy]-2-methyl propanoic acid] |  | Reduction in Body weight (%) [1]: 22%; Reduction in Total Cholesterol (%) [1]: 55%; Reduction in Triglyceride (%) [1]: 45%
2 | C/C(=C\COc1ccc(OC(C)(C)C(=O)O)cc1)c1ccc(-c2ccc(C(F)(F)F)cc2)cc1 [Example 40] | 150 to 154 | PPARγ (hPPARγ1): 1.3; PPARα (hPPARα): 12.6
3 | CCN1c2ccccc2Oc2ccc(/C(C)=C/COc3ccc(OC(C)(C)C(=O)O)cc3)cc21 [Example 32] | 114 to 116 | 
4 | CCOC(=O)C(C)(C)Oc1ccc(OC/C=C(\C)c2ccc3c(c2)Cc2ccccc2-3)cc1 [Example 7] | 155 to 158 | 
5 | CCC(C)(Oc1ccc(OC/C=C(\C)c2ccc(-c3ccccc3)cc2)cc1)C(=O)O (centres unmarked) [Example 37] | 114 to 117 | Triglyceride Lowering (%) (C57BL/Ks-db/db mice): 52%; Triglyceride Lowering (%) (Swiss albino mice): 71%; PPARγ (hPPARγ1): 2.8; PPARα (hPPARα): 12.2; Reduction in Low Density Lipoprotien (%) ([2]; LDL calculated from total cholesterol, HDL and triglyceride): 64%; Increase in High Density Lipoprotien (%) ([2]; plasma): 70%; Reduction in Total Cholesterol (%) ([2]; plasma): 60%; Triglyceride Lowering (%) ([2]; plasma): 55%
6 | CCC(C)(Oc1ccc(OC/C=C(\C)c2ccc(-c3ccc(F)cc3)cc2)cc1)C(=O)O (centres unmarked) [Example 36] | 122 to 125 | 
7 | C/C(=C\COc1ccc(SC(C)(C)C(=O)O)cc1)c1ccc(-c2ccc(C(F)(F)F)cc2)cc1 [Example 42] | 142 to 146 | 
8 | C/C(=C\COc1ccc(SC(C)(C)C(=O)O)cc1)c1ccc(-c2ccccc2)cc1 [Example 41] | 162 to 165 | 
9 | C/C(=C\COc1ccc(OC(C)(C)C(=O)O)cc1)c1ccc2c(c1)Cc1ccccc1-2 [Example 31] | 155 to 158 | 
10 | C/C(=C\COc1ccc(OC(C(=O)O)C(C)C)cc1)c1ccc(-c2ccccc2)cc1 (centres unmarked) [Example 44] | 136 to 140 | 
11 | C/C(=C\COc1ccc(OC2(C(=O)O)CCCC2)cc1)c1ccc(-c2ccccc2)cc1 [Example 47] | 142 to 144 | 
12 | C/C(=C\COc1ccc(OC(C)(C)C(=O)O)cc1)c1ccc(-c2cc(Cl)cc(Cl)c2)cc1 [Example 38] | 52 to 54 | 
13 | CC(C)(Oc1ccc(OCCc2ccc(-c3ccccc3)cc2)cc1)C(=O)O [Example 30] | 138 to 140 | 

The next lines start with results.

Row | melting point [°C] | Compound | further results
14 | 64 to 66 | CC(C)(Oc1ccc(OCCCc2ccc(OS(C)(=O)=O)cc2)cc1)C(=O)O [Example 48] | 
15 | 112 to 114 | CCOC(=O)C1(Oc2ccc(OC/C=C(\C)c3ccc(-c4ccccc4)cc3)cc2)CCCC1 [Example 23] | 
16 | 115 to 118 | CC(C)C(Sc1ccc(OCCCc2ccc(OS(C)(=O)=O)cc2)cc1)C(=O)O (centres unmarked) [Example 28] | 
17 | 120 to 122 | CC(CCOc1ccc(OC(C)(C)C(=O)O)cc1)c1ccc(-c2ccccc2)cc1 (centres unmarked) [Example 49] | 
18 | 184 to 188 | C/C(=C\CNc1ccc(OC(C)(C)C(=O)O)cc1)c1ccc(-c2ccccc2)cc1 [Example 35] | 
19 | 112 to 114 | CC(C)(Oc1ccc(OC/C=C/c2ccc(OS(C)(=O)=O)cc2)cc1)C(=O)O [Example 45] | 
20 | 172 to 174 | CC(C)(Oc1ccc(OC/C=C/c2ccc(-c3ccccc3)cc2)cc1)C(=O)O [Example 43] | 
